Where two headings read alike, the source gives them in different places.

The subject of assay [1] is HIV (H9/HTLV-IIIB stock) in C8166 cells. The experiment in a line: Cell culture assay: inhibition of syncytia formation in HIV-infected C8166 cells (antiviral, anti-HIV effect). In kind it is cell-based, HIV (HTLV-IIIB); human T4 cell line. Conditions: Human immunodeficiency virus 1; C8166 cells; H9/HTLV-IIIB, 50 times TCID50; 72 h, 37°; read-out: EC50 (concentration causing 50% inhibition of syncytia formation). The source says: Typical of such procedures are those described by S. Harada and N. Yamamoto, Jpn. J. Cancer Res. (Gann), 76, 432 (1985), and S. Harada et al., Science, 229, 563 (1985). An assay based on the latter procedures is described in the examples hereinafter.
In addition, Tables 1 to 8 list the results for exemplified compounds of formula 1 when assayed for antiviral (anti-HIV) effects according to the following protocol which is based on a cell culture assay previously described by Harada et al., supra. Transformed cells are used because of the rapidity with which HIV will replicate in the cells.
1. The test compound is dissolved in dimethylsulfoxide to a concentration of 5 mg/mL. The resultant solution .can be stored at 4° until use.
2. The resultant solution is diluted in RPMI 1640 (Gibco Laboratories, St. Lawrence, Mass., USA) to four times (4×) the final concentration which is to be tested. Once diluted in RPMI 1640, the solution is used in the cell culture assay within 4 h.
3. The latter solution (50 μL) is added to triplicate wells of a 96 well flat bottomed microtiter plate. RPMI (50 μL) also is added to control wells.
4. C8166 cells (5×10^4) in 50 μL of HEPES-buffered RPMI 1640 (pH=7.2), 10% heat inactivated fetal calf serum (FCS), […] gentamicin (complete media) are added to all wells.
5. Fifty times TCID50 of H9/HTLV-IIIB stock (stored in liquid nitrogen as cell culture supernatant in 50% FCS) in 100 μL of complete media is added to all wells. The infectious titer of the virus stocks is as previously determined by end point dilution on C8166 cells. The titer of stocks are stable for 6-12 months when stored at -193°.
6. Microtiter plates are then placed on level shelves of a 37°, 5% CO2 humidified incubator for 72 h.
7. Plates are then removed and centers of syncytia are counted in each well by low power phase contrast light microscopy. […] Control wells should have between 25 and 75 centers of syncytia per well.
8. Percent inhibition of syncytia formation is calculated by the formula: [formula]
The concentration of the test compound which causes a 50% inhibition of syncytia formation, i.e. the EC50, is determined by using the technique of serial dilution of the working solution at step 3 and graphically plotting the observed percent inhibition of syncytia formation against the various concentrations of the test compound.
In the following tables, assay results are listed for the exemplified compounds from the aforementioned recombinant HIV protease HPLC assay under the heading IC50 (nM) and from the cell culture assay under the heading EC50 (nM). Note that for some of the compounds listed in tables, the EC50 's have not been determined (ND).

For assay [2], the target named is T1, HIV protease (Human immunodeficiency virus type 1 group M subtype B, UniProt P04585).
T1 construct: an HIV-encoded enzyme known as HIV protease
As to the kind of experiment: biochemical. To be noted: read-out: IC50 (concentration causing 50% inhibition of HIV protease). The source says:
The procedure is based on the capacity of the test compound to inhibit enzymatic cleavage by HIV protease of a decapeptide (the substrate) having an amino acid sequence which includes a known HIV protease cleavage site of a HIV polyprotein; see H. G. Krausslich et al., Proc. Natl. Acad. Sci. USA, 86, 807 (1989).
Anderson, S. Rakhit and C. Yoakim in the European patent application 443 560, published Aug. 28, 1991.

Where [3] appears, read: recombinant HIV protease, decapeptide substrate, HPLC assay.

Consider `Cc1cccc(C)c1NC(=O)C[C@@H](C(=O)NC[C@@H](O)[C@H](Cc1ccccc1)NC(=O)OCc1ccccc1)C(C)(C)C` [Entry 72], for which, in assay [1], the EC50 was 360 nM. Further, the IC50 in assay [2] (setting [3]) is 3 nM.

Consider `CCC(CC)NC(=O)C[C@@H](C(=O)NC[C@@H](O)[C@H](Cc1ccccc1)NC(=O)[C@@H](NC(=O)OCc1ccccc1)C(C)(C)C)C(C)(C)C` [Entry 34], for which the EC50 in assay [1] turned out to be 65 nM. In assay [2] (setting [3]), the IC50 came out at 3 nM.

Consider `CCC(CC)NC(=O)C[C@@H](C(=O)NC[C@@H](O)[C@H](Cc1ccccc1)NC(=O)[C@@H](NC(=O)COc1ccccc1)[C@@H](C)O)C(C)(C)C` [Entry 41], for which the EC50 in assay [1] was determined as 170 nM. For the same molecule, the IC50 in assay [2] (setting [3]) is 3 nM.

Consider `CC(C)c1cccc(C(C)C)c1NC(=O)C[C@@H](C(=O)NC[C@@H](O)[C@H](Cc1ccccc1)NC(=O)[C@@H](NC(=O)c1ccc2ccccc2n1)[C@@H](C)O)C(C)(C)C` [Entry 42], for which, in assay [1], the EC50 is 830 nM. In addition, in assay [2] (setting [3]), the IC50 was determined as 19 nM.

Turning to `CCC(CC)NC(=O)C[C@@H](C(=O)NC[C@@H](O)[C@H](Cc1ccccc1)NC(=O)[C@H](CC(N)=O)NC(=O)c1cc2ccccc2n1C)C(C)(C)C` [Entry 11], the EC50 in assay [1] is 660 nM. For the same molecule, the IC50 in assay [2] (setting [3]) is 14 nM.

Regarding `CCC(CC)NC(=O)C[C@@H](C(=O)NC[C@@H](O)[C@H](Cc1ccccc1)NC(=O)[C@H](CCC(N)=O)NC(=O)OCc1ccccc1)C(C)(C)C` [Entry 8], in assay [2] (setting [3]), the IC50 came out at 19 nM.

As for `CCC(CC)NC(=O)C[C@@H](C(=O)NC[C@@H](O)[C@H](Cc1ccccc1)NC(=O)[C@H](CC(N)=O)NC(=O)c1cc2ccccc2cn1)C(C)(C)C` [Entry 18], the EC50 in assay [1] is 220 nM. For the same molecule, the IC50 in assay [2] (setting [3]) stood at 5 nM.

Turning to `CCC(CC)NC(=O)C(CC(=O)NC[C@@H](O)[C@H](Cc1ccccc1)NC(=O)[C@@H](NC(=O)OCc1ccccc1)C(C)C)CC(C)(C)C` (stereo partly shown) [Entry 54], the IC50 in assay [2] (setting [3]) was found to be 50 nM.

With `CCC(CC)NC(=O)C[C@@H](C(=O)NC[C@@H](O)[C@H](Cc1ccccc1)NC(=O)[C@@H](NC(=O)OC(C)(C)C)[C@@H](C)C(=O)O)C(C)(C)C` [Entry 16], in assay [2] (setting [3]), the IC50 came out at 7 nM.

In the case of `CCC(CC)NC(=O)C[C@H](C(=O)NC[C@@H](O)[C@H](Cc1ccccc1)NC(=O)[C@@H](NC(=O)OCc1ccccc1)C(C)(C)C)C(C)(C)C` [Entry 60], the IC50 in assay [2] (setting [3]) was 29 nM.

Take `CCC(CC)NC(=O)C1CCCCC1C(=O)NC[C@@H](O)[C@H](Cc1ccccc1)NC(=O)[C@@H](NC(=O)OCc1ccccc1)C(C)C` (stereo partly shown) [Entry 57]: in assay [2] (setting [3]), the IC50 worked out at 14 nM.

`CCC(CC)NC(=O)C[C@@H](C(=O)NC[C@@H](O)[C@H](Cc1ccccc1)NC(=O)[C@H](CC(N)=O)NC(=O)CCN1CCCCC1)C(C)(C)C` [Entry 3]: the IC50 in assay [2] (setting [3]) was found to be 88 nM.

As to `CCC(CC)NC(=O)C[C@@H](C(=O)NC[C@@H](O)[C@H](Cc1ccccc1)NC(=O)[C@H](CC(N)=O)NC(=O)C1Cc2ccccc2CN1)C(C)(C)C` (stereo partly shown) [Entry 5], in assay [2] (setting [3]), the IC50 was 32 nM.

For the molecule `CCC(CC)NC(=O)C[C@@H](C(=O)NC[C@@H](O)[C@H](Cc1ccccc1)NC(=O)[C@H](CC(N)=O)NC(=O)c1cnc2ccccc2c1)C(C)(C)C` [Entry 39], in assay [2] (setting [3]), the IC50 came out at 2 nM.

`CCC(CC)NC(=O)C[C@@H](C(=O)NC[C@@H](O)[C@H](Cc1ccccc1)NC(=O)[C@@H](NC(=O)c1ccc2ccccc2n1)[C@@H](C)C(=O)O)C(C)(C)C` [Entry 22]: the IC50 in assay [2] (setting [3]) worked out at 5 nM.

With `CCC(CC)NC(=O)C[C@@H](C(=O)NC[C@@H](O)[C@H](Cc1ccccc1)NC(=O)[C@@H](NC(=O)c1ccc2ccccc2n1)C1(C(=O)O)CCCC1)C(C)(C)C` [Entry 33], the IC50 in assay [2] (setting [3]) was 3 nM.

With `CCC(CC)NC(=O)C[C@@H](C(=O)NC[C@@H](O)[C@H](Cc1ccccc1)NC(=O)[C@H](CC(=O)O)NC(=O)OC(C)(C)C)C(C)(C)C` [Entry 2], the IC50 in assay [2] (setting [3]) is 90 nM.

Turning to `CCCC(CCC)NC(=O)C1CCCCC1C(=O)NC[C@@H](O)[C@H](Cc1ccccc1)NC(=O)[C@@H](NC(=O)OCc1ccccc1)C(C)C` (stereo partly shown) [Entry 56], in assay [2] (setting [3]), the IC50 was 29 nM.

Regarding `CC(C)[C@H](NC(=O)OCc1ccccc1)C(=O)N[C@@H](Cc1ccccc1)[C@H](O)CNC(=O)C1CCCCC1C(=O)NCC(C)(C)C` (stereo partly shown) [Entry 55], the IC50 in assay [2] (setting [3]) amounted to 66 nM.

Consider `CCC(CC)NC(=O)C[C@@H](C(=O)NC[C@@H](O)[C@H](Cc1ccccc1)NC(=O)[C@H](CC(N)=O)NC(=O)CCCCc1ccccc1)C(C)(C)C` [Entry 12], for which, in assay [2] (setting [3]), the IC50 turned out to be 13 nM.

As to `CCC(CC)NC(=O)CC(C(=O)NC[C@@H](O)[C@H](Cc1ccccc1)NC(=O)[C@H](CC(N)=O)NC(=O)c1ccc2ccccc2n1)C(C)C` (stereo partly shown) [Entry 50], the IC50 in assay [2] (setting [3]) is 9 nM.

With `CCC(CC)NC(=O)C[C@@H](C(=O)NC[C@@H](O)[C@H](Cc1ccccc1)NC(=O)[C@H](CC(N)=O)NC(=O)c1nccc2ccccc12)C(C)(C)C` [Entry 7], the IC50 in assay [2] (setting [3]) worked out at 20 nM.

For the molecule `CCC(CC)NC(=O)C[C@@H](C(=O)NC[C@@H](O)[C@H](Cc1ccccc1)NC(=O)[C@H](CC(N)=O)NC(=O)C1Cc2ccccc2N1)C(C)(C)C` (stereo partly shown) [Entry 30], the IC50 in assay [2] turned out to be 3 nM.

Take `CCC(CC)NC(=O)C[C@@H](C(=O)NC[C@@H](O)[C@H](Cc1ccccc1)NC(=O)[C@H](CC(N)=O)NC(=O)c1ccc2ncccc2c1)C(C)(C)C` [Entry 38]: the IC50 in assay [2] (setting [3]) was 2 nM.

For the molecule `CCC(CC)NC(=O)C[C@@H](C(=O)NC[C@@H](O)[C@H](Cc1ccccc1)NC(=O)[C@H](CC(N)=O)NC(=O)NCc1ccccc1)C(C)(C)C` [Entry 14], the IC50 in assay [2] (setting [3]) was 11 nM.

As to `CC(C)OC(=O)C[C@@H](C(=O)NC[C@@H](O)[C@H](Cc1ccccc1)NC(=O)[C@@H](NC(=O)c1ccc2ccccc2n1)[C@@H](C)O)C(C)(C)C` [Entry 58, 3(R)-tert-butyl-4-{2(R)-hydroxy-4-phenyl-3(S)-{[N-(2-quinolylcarbonyl)threonyl]-amino}butylamino}-4-oxobutyric acid isopropyl ester], the IC50 in assay [2] (setting [3]) worked out at 46 nM.

For the molecule `CCC(CC)NC(=O)CC(C(=O)NC[C@@H](O)[C@H](Cc1ccccc1)NC(=O)[C@H](CC(N)=O)NC(=O)OCc1ccccc1)C(C)C` (stereo partly shown) [Entry 48], in assay [2] (setting [3]), the IC50 stood at 32 nM.

Take `CCC(CC)NC(=O)C[C@@H](C(=O)NC[C@@H](O)[C@H](Cc1ccc(O)cc1)NC(=O)[C@@H](NC(=O)c1ccc2ccccc2n1)[C@@H](C)O)C(C)(C)C` [Entry 62, N^1-(1-ethylpropyl)-N^4 -{3(S)-{[N-(2-quinolylcarbonyl)-threonyl]amino}-2(R)-hydroxy-4-(4-hydroxyphenyl)butyl}-3(R)-tert-butylbutanediamide]: in assay [2] (setting [3]), the IC50 was determined as 61 nM.

`CCC(CC)NC(=O)C[C@@H](C(=O)NC[C@@H](O)[C@H](Cc1ccccc1)NC(=O)[C@H](CC(N)=O)NC(=O)C1Cc2ccccc2CN1)C(C)(C)C` (stereo partly shown) [Entry 24]: in assay [2] (setting [3]), the IC50 was found to be 4 nM.

`CCC(CC)OC(=O)CC(C(=O)NC[C@@H](O)[C@H](Cc1ccccc1)NC(=O)[C@H](CC(N)=O)NC(=O)OCc1ccccc1)C(C)(C)C` (stereo partly shown) [Entry 47]: the IC50 in assay [2] (setting [3]) came out at 51 nM.

`CCC(CC)NC(=O)C[C@@H](C(=O)NC[C@@H](O)[C@H](Cc1ccccc1)NC(=O)[C@@H](NC(=O)OC(C)(C)C)[C@@H](C)C(=O)OCc1ccccc1)C(C)(C)C` [Entry 4]: the IC50 in assay [2] (setting [3]) stood at 80 nM.

Turning to `CCC(CC)NC(=O)C[C@@H](C(=O)NC[C@@H](O)[C@H](Cc1ccccc1)NC(=O)[C@@H](NC(=O)OC(C)(C)C)C(C)(C)C)C(C)(C)C` [Entry 1], in assay [2] (setting [3]), the IC50 worked out at 100 nM.

Take `CCC(CC)NC(=O)C[C@@H](C(=O)NC[C@@H](O)[C@H](Cc1ccccc1)NC(=O)[C@H](CC(N)=O)NC(=O)CNc1ccccc1)C(C)(C)C` [Entry 19]: in assay [2] (setting [3]), the IC50 is 5 nM.

In the case of `CCC(CC)NC(=O)[C@H](CC(=O)NC[C@@H](O)[C@H](Cc1ccccc1)NC(=O)[C@@H](NC(=O)OCc1ccccc1)C(C)C)C(C)(C)C` [Entry 61], in assay [2] (setting [3]), the IC50 was determined as 13 nM.

These data come from US5545640A, “Protease inhibiting succinic acid derivatives” (Bio-Mega/Boehringer Ingeleheim Research Inc., priority 1995, dated 1996).
